In general, melting point refers to the temperature of the solid-liquid transition.

One data set deals with serum HDL cholesterol. Nature of the data set: HDL cholesterol determination in cholesterol/cholic acid-fed rats. In kind it is in vivo, Male Sprague-Dawley rats. The conditions noted are these: Rattus norvegicus, feed or water, 192 h, 8 days, rats fed chow with 0.25% cholic acid and 1.0% cholesterol, FPLC, read-out: HDL Cholesterol Level Increase (%); for change in vivo at 100 mg/kg/day: dose 100 mg/kg/day in diet. The procedure: The ability of the compounds of this invention to increase blood serum HDL levels was established by the following standard experimental procedure for determination of HDL cholesterol:
Male Sprague-Dawley rats weighing 200-225 g were housed two per cage and fed Purina Rodent Chow Special Mix 5001-S supplemented with 0.25% cholic acid and 1.0% cholesterol and water ad libitum for 8 days. Each test substance is administered to a group of six rats fed the same diet with the test diet mixed in as 0.005-0.1% of the total diet. Body weight and food consumption were recorded prior to diet administration and at termination. Typical doses of the test substances were 5-100 mg/kg/day.
At termination, blood was collected from anesthetized rats and the serum was separated by centrifugation. Total serum cholesterol was assayed using the Sigma Diagnostics enzymatic kit for the determination of cholesterol, Procedure No. 352, modified for use with ninety-six well microtiter plates. After reconstitution with water the reagent contains 300 U/I cholesterol oxidase, 100 U/I cholesterol esterase, 1000 U/I horse radish peroxidase, 0.3 mmoles/l 4-aminoantipyrine and 30.0 mmoles/l p-hydroxybenzenesulfonate in a pH 6.5 buffer. In the reaction cholesterol was oxidized to produce hydrogen peroxide which was used to form a quinoneimine dye. The concentration of dye formed was measured spectrophotometrically by absorbence at 490 nm after incubation at 25° C. for 30 minutes. The concentration of cholesterol was determined for each serum sample relative to a commercial standard from Sigma.
HDL cholesterol concentrations in serum are determined by separation of lipoprotein classes by fast protein liquid chromatography (FPLC) by a modification of the method of Kieft et al., J. Lipid Res., 32 (1991) 859-866. 25 ul of serum was injected onto Superose 12 and Superose 6 (Pharmacia), in series, with a column buffer of 0.05 M Tris (2-amino-2-hydroxymethyl-1,3-propanediol) and 0.15 M sodium chloride at a flow rate of 0.5 ml/min. The eluted sample was mixed on line with Boehringer-Mannheim cholesterol reagent pumped at 0.2 ml/min. The combined eluents are mixed and incubated on line through a knitted coil (Applied Biosciences) maintained at a temperature of 45C. The eluent was monitored by measuring absorbence at 490 nm and gives a continuous absorbence signal proportional to the cholesterol concentration. The relative concentration of each lipoprotein class was calculated as the percent of total absorbence. HDL cholesterol concentration, in serum, was calculated as the percent of total cholesterol as determined by FPLC multiplied by the total serum cholesterol concentration.
Test compounds were administered at the specified dose. Each test substance was administered to a group of six rats. The duration of treatment was eight days.

For `Cc1cc(Cl)ccc1N1C(=O)CON(C)C1=S` [Example 1, 4-(4-Chloro-2-methylphenyl)-2-methyl-3-thioxo-[1,2,4]oxadiazinan-5-one], the melting point lay within 141 to 143 °C. The change in vivo at 100 mg/kg/day in the data set with serum HDL cholesterol was found to be 221%.

The molecule `CN1OCC(=O)N(C(c2ccccc2)c2ccccc2)C1=S` [Example 2, 4-Benzhydryl-2-methyl-3-thioxo-[1,2,4]oxadiazinan-5-one] gave a melting point of 152 to 154 °C. For the same molecule, the change in vivo at 100 mg/kg/day in the data set with serum HDL cholesterol amounted to 60%.

Regarding `Cc1ccc(Cl)cc1N1C(=O)CON(C)C1=S` [Example 3, 4-(5-Chloro-2-methylphenyl)-2-methyl-3-thioxo-[1,2,4]oxadiazinan-5-one], the melting point was in the range of 100 to 102 °C. In addition, the change in vivo at 100 mg/kg/day in the data set with serum HDL cholesterol came to 236%.

In turn, `CCN1OCC(=O)N(c2cc(Cl)ccc2C)C1=S` [Example 4, 4-(5-Chloro-2-methylphenyl)-2-ethyl-3-thioxo-[1,2,4]oxadiazinan-5-one] displayed a melting point of 119 to 121 °C. The change in vivo at 85 mg/kg/day in the data set on serum HDL cholesterol (dose 85 mg/kg/day in diet) amounted to 136%.

Molecule `CN1OCC(=O)N(c2ccc3c(c2)CCC3)C1=S` [Example 5, 4-Indan-5-yl-2-methyl-3-thioxo-[1,2,4]oxadiazinan-5-one] showed a melting point of 135 to 137 °C. Besides, in the data set on serum HDL cholesterol, the change in vivo at 100 mg/kg/day was found to be 192%.

With `Cc1ccc(C)c(N2C(=O)CON(C)C2=S)c1` [Example 6, 4-(2,5-Dimethylphenyl)-2-methyl-3-thioxo-[1,2,4]oxadiazinan-5-one], the melting point was in the range of 104 to 106 °C. Moreover, in the data set with serum HDL cholesterol, the change in vivo at 100 mg/kg/day was 72%.

For `Cc1cccc(Cl)c1N1C(=O)CON(C)C1=S` [Example 7, 4-(2-Chloro-6-methylphenyl)-2-methyl-3-thioxo-[1,2,4]oxadiazinan-5-one], the melting point lay in the range of 176 to 178 °C. Further, the change in vivo at 100 mg/kg/day in the data set on serum HDL cholesterol was found to be 100%.

Consider `CC(C)c1ccccc1N1C(=O)CON(C)C1=S` [Example 8, 4-(2-Isopropylphenyl)-2-methyl-3-thioxo-[1,2,4]oxadiazinan-5-one], for which the melting point fell in the range of 98 to 101 °C. Also, in the data set on serum HDL cholesterol, the change in vivo at 100 mg/kg/day is 95%.

Consider `CN1OCC(=O)N(c2ccc(C(C)(C)C)cc2)C1=S` [Example 9, 4-(4-tert-Butylphenyl)-2-methyl-3-thioxo-[1,2,4]oxadiazinan-5-one], for which the melting point was 168 to 170 °C. For the same molecule, the change in vivo at 100 mg/kg/day in the data set on serum HDL cholesterol was 170%.

`CN1OCC(=O)N(c2ccc(Oc3ccccc3)cc2)C1=S` [Example 10, 4-(4-Phenoxyphenyl)-2-methyl-3-thioxo-[1,2,4]oxadiazinan-5-one] yielded a melting point of 159 to 160 °C. Moreover, in the data set on serum HDL cholesterol, the change in vivo at 100 mg/kg/day was determined as 102%.

In turn, `COc1ccc(Cl)cc1N1C(=O)CON(C)C1=S` [Example 11, 4-(5-Chloro-2-methoxyphenyl)-2-methyl-3-thioxo-[1,2,4]oxadiazinan-5-one] had a melting point of 189 to 191 °C. Further, the change in vivo at 100 mg/kg/day in the data set on serum HDL cholesterol was 78%.

These data come from US6562814B2, “3-thioxo-[1,2,4]-oxadiazinan-5-one derivatives” (Wyeth, priority 2000, dated 2003).
